Usually Ki stands for a measure of affinity in units of concentration, obtained from inhibition or displacement. For orientation: IC50 means the point on the concentration scale where inhibition reaches its midpoint.

Ki and IC50 data for 20 molecules are collected here from patent US9868748B2, “Thiazolopyrrolidine inhibitors of ROR- γ” (Vitae Pharmaceuticals, Inc., priority 2013, dated 2018).

Test [1] concerns the target recombinant RORγ Ligand Binding Domain (LBD) protein (Homo sapiens (Human), UniProt P51449). In words: Radio-Ligand RORγ Binding Assay (Assay 1). Particulars: competition with 25-hydroxy [26,27-3H]-cholesterol, SPA, read-out: RORγ Binding Ki Range*. A digest of the protocol: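 Recombinant human RORγ ligand binding domain (6×His-GST fusion, 24 nM stock) competed with tritiated 25-hydroxycholesterol (8.6 nM stock) in HEPES buffer pH 7.4 with detergents and DTT; poly-Lys YSi SPA beads, room temperature, tritium SPA signal. Four-parameter IC50 from semi-log dilutions, normalised to DMSO and 10 μM T0901317, then Ki via KD equation.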

Test [2] concerns the target full-length RORγt in Jurkat cells (Homo sapiens (Human), UniProt P51449). In words: RORγt 5xRORE Assay in Jurkat Cells (Assay 2). It is filed as cell-based. Particulars: Nanoluc luciferase reporter, 16-18 hrs. The gist of the method: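 Inverse agonist activity was read as NanoGlo luminescence from conditioned medium after 16–18 h compound exposure (37 °C, 0.1% DMSO final). The cells were Jurkat, transiently transfected with RORγt and a secNluc reporter carrying five RORE repeats, seeded 80,000 per well in delipidated-serum RPMI.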
A general note: Reporter assays use an easily measured gene product as a stand-in for the process of interest.

[3] abbreviates: Table 8, read-out: RORγt5X IC50 Range*.
[4] abbreviates: Table 9, read-out: RORγt5X IC50 Range*.

Read-outs that look alike come from different tables or passages of the source.

recombinant RORγ Ligand Binding Domain (LBD) protein, sequence (P51449 269-508): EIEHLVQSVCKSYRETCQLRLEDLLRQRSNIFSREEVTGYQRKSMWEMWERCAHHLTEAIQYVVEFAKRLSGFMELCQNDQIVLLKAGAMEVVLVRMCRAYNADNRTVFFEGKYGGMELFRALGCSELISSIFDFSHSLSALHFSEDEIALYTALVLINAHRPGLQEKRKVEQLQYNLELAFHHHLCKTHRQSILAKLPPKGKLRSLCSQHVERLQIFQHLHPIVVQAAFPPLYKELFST
full-length RORγt in Jurkat cells, sequence (P51449 other isoform, or with tags, fused parts or gaps): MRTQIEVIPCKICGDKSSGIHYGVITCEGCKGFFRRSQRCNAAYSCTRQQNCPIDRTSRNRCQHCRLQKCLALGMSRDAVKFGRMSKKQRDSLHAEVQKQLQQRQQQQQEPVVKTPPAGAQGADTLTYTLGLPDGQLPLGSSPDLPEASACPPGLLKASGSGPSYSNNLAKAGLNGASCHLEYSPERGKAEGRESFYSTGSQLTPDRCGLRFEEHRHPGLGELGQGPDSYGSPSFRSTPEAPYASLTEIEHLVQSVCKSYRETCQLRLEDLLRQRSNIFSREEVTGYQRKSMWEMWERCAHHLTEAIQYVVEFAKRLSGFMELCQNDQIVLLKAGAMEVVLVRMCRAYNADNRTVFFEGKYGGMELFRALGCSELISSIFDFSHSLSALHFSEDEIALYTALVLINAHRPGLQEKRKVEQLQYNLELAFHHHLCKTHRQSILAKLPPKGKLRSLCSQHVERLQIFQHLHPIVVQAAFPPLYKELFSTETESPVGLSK

Take `CCS(=O)(=O)c1ccc(CC(=O)Nc2nc3c(s2)CN([C@H](C)c2ncc(Cl)cc2F)[C@H]3C(C)C)cc1` [I-A53]: in test [1] (Table 8), the Ki was under 100 nM. Further, the IC50 in test [2] (setting [3]) was under 100 nM.
Regarding `CCS(=O)(=O)c1ccc(CC(=O)Nc2nc3c(s2)CN(Cc2ncc(Cl)cc2F)[C@H]3C(C)C)cc1` [I-A10], in test [1] (Table 8), the Ki is under 100 nM. In addition, the IC50 in test [2] (setting [3]) was under 100 nM.
Take `CCS(=O)(=O)c1ccc(CC(=O)Nc2nc3c(s2)CN(C[C@H]2CC[C@](C)(C#N)CC2)[C@H]3C(C)C)nc1` (single isomer, unassigned): in test [1] (Table 9), the Ki is under 100 nM. For the same molecule, the IC50 in test [2] (setting [4]) is over 1000 nM.
For `CCS(=O)(=O)c1ccc(CC(=O)Nc2nc3c(s2)CN(Cc2ccncc2)[C@H]3C(C)C)cc1` the same measures were under 100 nM and over 1000 nM.
On the same counts, the results for `CC[C@@]1(C)c2nc(NC(=O)Cc3ccc(S(=O)(=O)CC)cc3)sc2CN1Cc1ccc(Cl)cc1` are under 100 nM and under 100 nM.
For `CCS(=O)(=O)c1ccc(CC(=O)Nc2nc3c(s2)CN(CC2CN(CC(F)(F)F)C2)[C@H]3C(C)C)cc1` the same measures were under 100 nM and 100 to 1000 nM.
Consider `CCS(=O)(=O)c1ccc(CC(=O)Nc2nc3c(s2)CN(C[C@H]2CC[C@](C)(OC)CC2)[C@H]3C(C)C)nc1` (single isomer, unassigned), for which the Ki in test [1] (Table 9) was under 100 nM. For the same molecule, in test [2] (setting [4]), the IC50 was under 100 nM.
For `CC[C@H](C)[C@H]1c2nc(NC(=O)Cc3ccc(S(C)(=O)=O)cc3)sc2CN1Cc1ccc(Cl)cc1` [I-H1, N—((S)-4-((S)-sec-butyl)-5-(4-chlorobenzyl)-5,6-dihydro-4H-pyrrolo[3,4-d]thiazol-2-yl)-2-(4-(methylsulfonyl)phenyl)acetamide], the Ki in test [1] (Table 8) is under 100 nM. Moreover, the IC50 in test [2] (setting [3]) is under 100 nM.
Regarding `CCS(=O)(=O)c1ccc(CC(=O)Nc2nc3c(s2)CN(Cc2ccc(F)cc2)[C@H]3C(C)C)cc1` [I-A14], the Ki in test [1] (Table 8) was under 100 nM. Further, in test [2] (setting [3]), the IC50 was over 1000 nM.
Consider `CCS(=O)(=O)c1ccc(CC(=O)Nc2nc3c(s2)CN(Cc2ccc(C#N)cc2)[C@H]3C(C)C)nc1` [drawing 230], for which the Ki in test [1] (Table 9) is under 100 nM. Besides, in test [2] (setting [4]), the IC50 is under 100 nM.
On to `CCS(=O)(=O)c1ccc(CC(=O)Nc2nc3c(s2)CN(Cc2ccc(OC(F)F)cn2)[C@H]3C(C)C)cc1` [I-A54], for which the Ki in test [1] (Table 8) was under 100 nM. The IC50 in test [2] (setting [3]) was under 100 nM.
On to `CC(C)[C@H]1c2nc(NC(=O)Cc3ccc(S(C)(=O)=O)cc3)sc2CN1[C@@H](C)c1ccc(C#N)cc1Cl` [I-B10], for which the Ki in test [1] (Table 8) was under 100 nM. Also, in test [2] (setting [3]), the IC50 was under 100 nM.
As for `CCS(=O)(=O)c1ccc(CC(=O)Nc2nc3c(s2)CN(Cc2ccc(C#N)c(Cl)c2)[C@H]3C(C)C)nc1` [I-C10], the Ki in test [1] (Table 8) is under 100 nM. Moreover, the IC50 in test [2] (setting [3]) is under 100 nM.
Consider `CC[C@H]1c2nc(NC(=O)Cc3ccc(S(=O)(=O)CC)cc3)sc2CN1Cc1ccc2nc[nH]c2c1`, for which the Ki in test [1] (Table 9) is under 100 nM. Further, the IC50 in test [2] (setting [4]) was 100 to 1000 nM.
On the same counts, the results for `CC(C)[C@@H]1c2nc(NC(=O)Cc3ccc(S(C)(=O)=O)cc3)sc2CN1Cc1ccc(C(F)(F)F)cc1F` are 100 to 1000 nM and 100 to 1000 nM.
Take `CCS(=O)(=O)c1ccc(CC(=O)Nc2nc3c(s2)CN(C[C@@H]2CCCOC2)[C@H]3C(C)C)cc1` (single isomer, unassigned): in test [1] (Table 9), the Ki was under 100 nM. Besides, in test [2] (setting [4]), the IC50 was over 1000 nM.
On the same counts, the results for `CC(C)[C@H]1c2nc(NC(=O)Cc3ccc(C(=O)O)cc3)sc2CN1Cc1ccc(Cl)cc1` are under 100 nM and 100 to 1000 nM.
With `CCS(=O)(=O)c1ccc(CC(=O)Nc2nc3c(s2)CN(Cc2ccc(OC(F)(F)F)cc2)[C@@H]3C(C)C)cc1`, the Ki in test [1] (Table 9) was under 100 nM. Further, the IC50 in test [2] (setting [4]) lay in the range of 100 to 1000 nM.
On the same counts, the results for `Cc1cc(C(F)(F)F)nc(N2Cc3sc(NC(=O)Cc4ccc(S(C)(=O)=O)cc4)nc3[C@H]2C(C)C)n1` are 100 to 1000 nM and over 1000 nM.
Take `CCS(=O)(=O)c1ccc(CC(=O)Nc2nc3c(s2)CN(C[C@H]2CC[C@H](C(F)(F)F)OC2)[C@H]3C(C)C)cc1` [I-A27]: the Ki in test [1] (Table 8) is under 100 nM. In addition, in test [2] (setting [3]), the IC50 was under 100 nM.
